“And” between values parts separate entries of the source, which are not always exact repeats. Identical values can stand only once. Counter-ions that a name gives are not always drawn. Like-named read-outs stand apart in the source and are kept apart here.
Assays:
[1] = tested on: HBV (ayw subtype, genotype D) replicon in HepG2.2.15 cells; assay: microbe, parasite or virus in culture; assay type: cell-based, Hepatitis B virus; settings: for inhibition at 1 µM: Hepatitis B virus
[2] = ref https://www.drugbank.ca/; cited from earlier work
[3] = tested on: HBV pgRNA/precore RNA in HepG2.2.15 cells; assay type: cell-based, Hepatitis B virus
Description: Fig. 1 Effect of FDA-approved compounds on HBV replication. a Schematic depiction of the primary screening analysis. HepG2.2.15 cells, which were stably transfected with HBV replicons, were treated with 978 FDA-approved drugs (1 μM) for 3 days. Entecavir (ETV) (1 μM) served as positive control. […] Quantitative RT-PCR was performed after 6 days of incubation. d Effect of the 19 candidates on intracellular HBV capsid assembly. Huh-7 cells were transfected with pCDNA3-Core and exposed after 12 h to the 19 candidates (1 μM) for 36 h. The cells were lysed and assembled HBV core particles were isolated by sucrose step gradient ultracentrifugation, resolved on 1% agarose gels, and subjected to immunoblot analysis with anti-HBV core antibody.
Quantitative RT-PCR with primers that detect three HBV regions (R1, R2, and R3, Supplementary Table 1) was used to measure HBV transcription. This RT-PCR detects pgRNA and precore RNA (3.5 kB), two HBV surface-encoding RNAs (2.5 kB and 2.1 kB), and HBx-encoding RNA (0.7 kB)[55]. PCR conditions were 95 °C for 10 min initially, then 50 cycles of 95 °C for 30 s, 60 °C for 60 s and 72 °C for 30 s, and finally 1 cycle of 95 °C for 60 s, 55 °C for 30 s and 95 °C for 30 s.
a Schematic depiction of the R1, R2, and R3 regions of the HBV genome that were targeted by
quantitative RT-PCR to quantitate the transcription of pgRNA, two HBV surface RNAs, and HBx RNA.
pGL3/HBV pgRNA promoter or pGL3/HBV sRNA promoter. The data shown in (b – d) represent two

[4] = HepG2.2.15, 72 h, 1 μM, 3 days, ETV =100%, read-out: % of inhibition (ETV =100%), initial screening (3days)
[5] = HepG2.2.15, 144 h, 6 days, ETV =100%, read-out: % of inhibition (ETV =100%), confirmation (6days)
[6] = HepG2.2.15, 72 h, read-out: % of inhibition (ETV =100%), initial screening (3days)
[7] = HepG2.2.15, 144 h, read-out: % of inhibition (ETV =100%), confirmation (6days)

Compound | inhibition at 1 µM [1, 4] | inhibition at 1 µM [1, 5] | pKa value (acidic) [2] | pKa value (basic) [2] | Relative HBV pgRNA/precore RNA level (Folds), AVERAGE ([3]; Fig. 1c, 6 days) | Relative HBV pgRNA/precore RNA level (Folds), AVERAGE [3] | other results
COc1cc(C)c(/C=C/C(C)=C/C=C/C(C)=C/C(=O)O)c(C)c1C [Acitretin] | 110% | 1.8% | 5.01 | -4.8 | 0.9923 Folds | – | –
O=C1NC(=O)C(c2ccccc2)(c2ccccc2)N1 [Phenytoin sodium] | 124% | -2.4% | 9.47 | – | 0.7935 Folds | – | –
Cc1c(N(C)C)c(=O)n(-c2ccccc2)n1C [Amidopyrine] | – | – | – | 3.47 | 1.046 Folds | – | % of inhibition (ETV =100%), initial screening (3days) ([1]; 1 μM, 3 days, ETV =100%): 111.6%; % of inhibition (ETV =100%), confirmation (6days) ([1]; 6 days, ETV =100%): 7.1%; Relative secreted HBV DNA level (Folds), AVERAGE ([1]; Fig. 1b, 6 days): 0.9368 Folds; Relative secreted HBV DNA level (Folds), individual samples ([1]; Fig. 1b, 6 days, Sample1-3): 0.9368 Folds and 0.9352 Folds and 0.9383 Folds; Relative HBV pgRNA/precore RNA level (Folds), individual samples ([3]; Fig. 1c, 6 days, Sample1-3): 1.129 Folds and 0.9386 Folds and 1.071 Folds
CN1C(C(=O)Nc2ccccn2)=C(O)c2sccc2S1(=O)=O [Tenoxicam] | – | – | 2.21 | 4.26 | – | 0.04619 Folds | inhibition at 1 µM [1, 6]: 110%; inhibition at 1 µM [1, 7]: 79.4%
CCOCC(O)COc1ccc(NC(=O)CC[S+](C)C)cc1 (stereo not shown) [Suplatast tosylate] | 125% | 76.2% | 12.7 | – | 1.034 Folds | – | –
C[N+]1(C)[C@@H]2C[C@@H](OC(=O)C(O)(c3cccs3)c3cccs3)C[C@H]1[C@@H]1O[C@@H]12 [Tiotropium Bromide hydrate] | 117% | 4.9% | 10.35 | -4.3 | 1.071 Folds | – | –
O=N[O-].[Na+] [Sodium nitrite] | – | – | – | – | – | 0.04652 Folds | % of inhibition (ETV =100%), confirmation (6days) [1]: 83.1%; Relative secreted HBV DNA level (Folds), AVERAGE [1]: 0.2643 Folds; Relative secreted HBV DNA level (Folds), individual samples [1]: 0.2643 Folds and 0.2628 Folds and 0.2659 Folds; % of inhibition (ETV =100%), initial screening (3days) ([1]; 1 µM): 152.7%; Relative HBV pgRNA/precore RNA level (Folds), individual samples [3]: 0.04803 Folds and 0.041 Folds and 0.05054 Folds
CC(C)NCC(O)c1ccc(NS(C)(=O)=O)cc1 (stereo not shown) [Sotalol] | 128% | 69.7% | 10.07 | 9.43 | 1.022 Folds | – | –
Clc1ccc(C(Cn2ccnc2)OCc2c(Cl)cccc2Cl)c(Cl)c1 (stereo not shown) [Isoconazole nitrate] | 148% | 41.4% | – | 6.77 | 1.034 Folds | – | –
Clc1ccc(COC(Cn2ccnc2)c2ccc(Cl)cc2Cl)c(Cl)c1 (stereo not shown) [Miconazole] | – | – | – | 6.77 | – | 0.964 Folds | inhibition at 1 µM [1, 6]: 132%; inhibition at 1 µM [1, 7]: -2.8%
Clc1ccc(COC(Cn2ccnc2)c2ccc(Cl)cc2Cl)cc1 (stereo not shown) [Econazole nitrate] | – | – | – | 6.77 | – | 0.0453 Folds | inhibition at 1 µM [1, 6]: 147%; inhibition at 1 µM [1, 7]: 27.5%
O=c1[nH]c(=O)n(C2CCCO2)cc1F (stereo not shown) [Ftorafur] | 131% | 64.7% | 8.08 | -4.3 | 0.977 Folds | – | –
OC(CCN1CCCC1)(c1ccccc1)C1CCCCC1 (stereo not shown) [Procyclidine HCl] | 112% | 70.4% | – | 9.45 | 1.056 Folds | – | –
NCCc1ccc(O)c(O)c1 [Dopamine hydrochloride] | – | – | 10.01 | 9.27 | – | 1.103 Folds | inhibition at 1 µM [1, 6]: 162%; inhibition at 1 µM [1, 7]: 67.9%
CC(C)(C)c1ccc(C(O)CCCN2CCC(C(O)(c3ccccc3)c3ccccc3)CC2)cc1 (stereo not shown) [Terfenadine] | – | – | 13.2 | 9.02 | – | 0.05435 Folds | inhibition at 1 µM [1, 6]: 101%; inhibition at 1 µM [1, 7]: 83.6%
CCCN(CCc1cccs1)[C@H]1CCc2c(O)cccc2C1 [Rotigotine] | 104% | 65.9% | 10.03 | 10.97 | 1.049 Folds | – | –
L-Adrenaline | – | – | – | – | 0.9192 Folds | – | % of inhibition (ETV =100%), initial screening (3days) ([1]; 1 μM, 3 days, ETV =100%): 152.6%; % of inhibition (ETV =100%), confirmation (6days) ([1]; 6 days, ETV =100%): 1.5%; Relative secreted HBV DNA level (Folds), AVERAGE ([1]; Fig. 1b, 6 days): 0.9865 Folds; Relative secreted HBV DNA level (Folds), individual samples ([1]; Fig. 1b, 6 days, Sample1-3): 0.9865 Folds and 0.985 Folds and 0.9881 Folds; Relative HBV pgRNA/precore RNA level (Folds), individual samples ([3]; Fig. 1c, 6 days, Sample1-3): 1.032 Folds and 0.7969 Folds and 0.9286 Folds
OC(CNCC(O)C1CCc2cc(F)ccc2O1)C1CCc2cc(F)ccc2O1 (stereo not shown) [Nebivolol] | 103% | 78.4% | 13.52 | 8.9 | 0.9531 Folds | – | –

Source: article PMC6522524 (Nature Communications, 2019)
